{"source": "patent US20250025443A1", "about": "“COMPOUNDS AND METHODS FOR TREATING CORONA VIRUSES” (CLEAR CREEK BIO, INC., priority 2021, published 2025)", "data": [{"target": "SARS-CoV-2 Papain-Like Protease (PLpro) (Severe acute respiratory syndrome coronavirus 2 (2019-nCoV) (SARS-CoV-2), UniProt P0DTD1)", "assay": "biochemical", "settings": "PLpro IC50, SARS-CoV-2 PLpro enzymatic fluorescence assay", "units": {"IC50": "nM"}, "values": [{"smiles": "Cc1cc2c(CCN)c[nH]c2cc1C(=O)NC1(c2cccc3ccccc23)CC1", "note": "[Compound 292, 3-(2-Aminoethyl)-5-methyl-N-(1-(naphthalen-1-yl)cyclopropyl)-1H-indole-6-carboxamide]", "IC50": "100 to 1000"}]}, {"target": "SARS-CoV-2 Papain-Like Protease (PLpro) (Severe acute respiratory syndrome coronavirus 2 (2019-nCoV) (SARS-CoV-2), UniProt P0DTD1)", "assay": "biochemical", "settings": "PLpro enzymatic fluorescence assay; class symbols; read-out: PLpro IC50", "units": {"IC50": "nM"}, "values": [{"smiles": "C=C(C)c1cc(C2(NC(=O)c3cc(OCCNC)ccc3C)CC2)c2cccnc2c1", "note": "[Compound 616, 2-Methyl-5-(2-(methylamino)ethoxy)-N-(1-(7-(prop-1-en-2-yl)quinolin-5-yl)cyclopropyl)benzamide]", "IC50": "< 100"}, {"smiles": "Cc1ccc(OC[C@@H]2CCN2C)cc1C(=O)NC1(c2cc(-c3ncn4ccccc34)cc3ncccc23)CC1", "note": "[Compound 736, (S)—N-(1-(7-(Imidazo[1,5-a]pyridin-1-yl)quinolin-5-yl)cyclopropyl)-2-methyl-5-((1-methylazetidin-2-yl)methoxy)benzamide]", "IC50": "< 100"}, {"smiles": "Cc1ccc(OC[C@@H]2CCN2C)cc1C(=O)NC1(c2cc(-c3ccc(CO)s3)cc3ncccc23)CC1", "note": "[Compound 753, (S)-N-(1-(7-(5-(Hydroxymethyl)thiophen-2-yl)quinolin-5-yl)cyclopropyl)-2-methyl-5-((1-methylazetidin-2-yl)methoxy)benzamide]", "IC50": "< 100"}, {"smiles": "C=Cc1cc(C2(NC(=O)c3cc(OC[C@@H]4CCN4C)c(NC)cc3C)CC2)c2cccnc2c1", "note": "[Compound 745, (S)-2-Methyl-4-(methylamino)-5-((1-methylazetidin-2-yl)methoxy)-N-(1-(7-vinylquinolin-5-yl)cyclopropyl)benzamide]", "IC50": "< 100"}, {"smiles": "COCCOc1cc(C2(NC(=O)c3cc(OC[C@@H]4CCN4C)ccc3C)CC2)c2cccnc2c1", "note": "[Compound 591, (S)-N-(1-(7-(2-Methoxyethoxy)quinolin-5-yl)cyclopropyl)-2-methyl-5-((1-methylazetidin-2-yl)methoxy)benzamide]", "IC50": "< 100"}, {"smiles": "Cc1ccc(OC[C@@H]2CCN2C)cc1C(=O)NC1(c2cc(-c3nc4ccccc4o3)cc3ncccc23)CC1", "note": "[Compound 718, (S)—N-(1-(7-(Benzo[d]oxazol-2-yl)quinolin-5-yl)cyclopropyl)-2-methyl-5-((1-methylazetidin-2-yl)methoxy)benzamide]", "IC50": "< 100"}, {"smiles": "Cc1ccc(OC[C@@H]2CCN2C)cc1C(=O)NC1(c2cc(-c3ccc(C(C)N4CCCC4)s3)cc3ncccc23)CC1", "note": "(stereo partly drawn) [Compound 780, 2-Methyl-5-(((S)-1-methylazetidin-2-yl)methoxy)-N-(1-(7-(5-(1-(pyrrolidin-1-yl)ethyl)thiophen-2-yl)quinolin-5-yl)cyclopropyl)benzamide]", "IC50": "< 100"}, {"smiles": "COc1cc(C2(NC(=O)c3cc(OC[C@@H]4C[C@@H](F)CN4C)ccc3C)CC2)c2cccnc2c1", "note": "[Compound 532, 5-(((2S,4R)-4-Fluoro-1-methylpyrrolidin-2-yl)methoxy)-N-(1-(7-methoxyquinolin-5-yl)cyclopropyl)-2-methylbenzamide]", "IC50": "< 100"}, {"smiles": "Cc1ccc(OC[C@@H]2CCN2C)cc1C(=O)NC1(c2cc(OCC(F)(F)F)cc3ncccc23)CC1", "note": "[Compound 795, (S)-2-Methyl-5-((1-methylazetidin-2-yl)methoxy)-N-(1-(7-(2,2,2-trifluoroethoxy)quinolin-5-yl)cyclopropyl)benzamide]", "IC50": "< 100"}, {"smiles": "Cc1ccc(OC[C@@H]2CCN2C)cc1C(=O)NC1(c2cc(-c3cc[nH]n3)cc3ncccc23)CC1", "note": "[Compound 633, (S)-N-(1-(7-(1H-Pyrazol-3-yl)quinolin-5-yl)cyclopropyl)-2-methyl-5-((1-methylazetidin-2-yl)methoxy)benzamide]", "IC50": "< 100"}, {"smiles": "C=Cc1cc(C2(NC(=O)c3cc(O[C@H](C)[C@@H]4CCN4C)ccc3C)CC2)c2cccnc2c1", "note": "[Compound 758, 2-Methyl-5-((R)-1-((S)-1-methylazetidin-2-yl)ethoxy)-N-(1-(7-vinylquinolin-5-yl)cyclopropyl)benzamide]", "IC50": "< 100"}]}, {"target": "SARS-CoV-2 Papain-Like Protease (PLpro) (Severe acute respiratory syndrome coronavirus 2 (2019-nCoV) (SARS-CoV-2), UniProt P0DTD1)", "assay": "biochemical", "settings": "SARS-CoV-2 PLpro enzymatic fluorescence assay; read-out: PLpro IC50", "units": {"IC50": "nM"}, "values": [{"smiles": "CC(c1cccc2ccccc12)N1CC(CC(=O)NCc2cccc(F)c2)C1", "note": "(stereo not shown) [Compound 143, N-(3-Fluorobenzyl)-2-(1-(1-(naphthalen-1-yl)ethyl)azetidin-3-yl)acetamide]", "IC50": "> 5000"}, {"smiles": "Cc1ccc(OCC2CCN2C)cc1C(=O)NC1(c2cc(Br)cc3ccccc23)CC1", "note": "(stereo not shown) [Compound 461, N-(1-(3-Bromonaphthalen-1-yl)cyclopropyl)-2-methyl-5-((1-methylazetidin-2-yl)methoxy)benzamide]", "IC50": "< 100"}, {"smiles": "Cc1ccc(N)cc1CN[C@H](C)c1cccc2ccccc12", "note": "[Compound 106, (R)-4-Methyl-3-(((1-(naphthalen-1-yl)ethyl)amino)methyl) aniline]", "IC50": "> 5000"}, {"smiles": "C#Cc1ccc(OCCN(C)C)cc1C(=O)NC1(c2cccc3ccccc23)CC1", "note": "[Compound 337, 5-(2-(Dimethylamino)ethoxy)-2-ethynyl-N-(1-(naphthalen-1-yl)cyclopropyl)benzamide]", "IC50": "> 5000"}, {"smiles": "CC(c1cccc2cnccc12)N1CCC(C(=O)NCc2cccc(F)c2)CC1", "note": "(stereo not shown) [Compound 522, N-(3-Fluorobenzyl)-1-(1-(isoquinolin-5-yl)ethyl)piperidine-4-carboxamide]", "IC50": "> 5000"}, {"smiles": "Cc1cc2nc[nH]c2cc1C(=O)N[C@H](C)c1cccc2ccccc12", "note": "[Compound 102, (R)-5-Methyl-N-(1-(naphthalen-1-yl)ethyl)-1H-benzo[d]imidazole-6-carboxamide]", "IC50": "1000 to 5000"}, {"smiles": "Cc1ccc(OCCN(C)C)cc1C(=O)NC1(c2cccc3c2CCCC3)CC1", "note": "[Compound 329, 5-(2-(Dimethylamino)ethoxy)-2-methyl-N-(1-(5,6,7,8-tetrahydronaphthalen-1-yl)cyclopropyl)benzamide]", "IC50": "100 to 1000"}, {"smiles": "Cc1ccc([N+](=O)[O-])cc1C(=O)NC(c1cccc2ccccc12)C1CCOCC1", "note": "(stereo not shown) [Compound 105, 2-Methyl-N-(naphthalen-1-yl(tetrahydro-2H-pyran-4-yl)methyl)-5-nitrobenzamide]", "IC50": "> 5000"}, {"smiles": "Cc1ccc(OCC2CCN2C)cc1C(=O)NC1(c2cc(NC(=O)OC(C)(C)C)cc3ccccc23)CC1", "note": "(stereo not shown) [Compound 482, tert-Butyl(4-(1-(2-methyl-5-((1-methylazetidin-2-yl)methoxy)benzamido)cyclopropyl)naphthalen-2-yl)carbamate]", "IC50": "< 100"}, {"smiles": "COc1cc(C2(NC(=O)c3cc(OC[C@@H]4CCN4)ccc3C)CC2)c2cccnc2c1", "note": "[Compound 511, (S)-5-(Azetidin-2-ylmethoxy)-N-(1-(7-methoxyquinolin-5-yl)cyclopropyl)-2-methylbenzamide]", "IC50": "< 100"}, {"smiles": "Cc1ccc(NCCN(C)C)cc1C(=O)NC1(c2cccc3ccccc23)CC1", "note": "[Compound 412]", "IC50": "< 100"}, {"smiles": "Cc1cc2cc(C(C)N)[nH]c2cc1C(=O)NC1(c2cccc3ccccc23)CC1", "note": "(stereo not shown) [Compound 273, 2-(1-Aminoethyl)-5-methyl-N-(1-(naphthalen-1-yl)cyclopropyl)-1H-indole-6-carboxamide]", "IC50": "< 100"}, {"smiles": "COc1ccc(C2(NC(=O)c3cc(OCCN(C)C)ccc3C)CC2)cc1", "note": "[Compound 271, 5-(2-(Dimethylamino)ethoxy)-N-(1-(4-methoxyphenyl)cyclopropyl)-2-methylbenzamide]", "IC50": "> 5000"}, {"smiles": "Cc1cc2ccn(CC3COC3)c2cc1C(=O)NC1(c2cccc3ccccc23)CC1", "note": "[Compound 295, 5-Methyl-N-(1-(naphthalen-1-yl)cyclopropyl)-1-(oxetan-3-ylmethyl)-1H-indole-6-carboxamide]", "IC50": "100 to 1000"}, {"smiles": "COC(=O)/C=C/C(=O)NNC(=O)CCc1ccccc1C(=O)NC1(c2cccc3ccccc23)CC1", "note": "[Compound 373, (E)-Methyl 4-(2-(3-(2-((1-(naphthalen-1-yl)cyclopropyl)carbamoyl)phenyl)propanoyl) hydrazinyl)-4-oxobut-2-enoate]", "IC50": "< 100"}, {"smiles": "C[C@@H](NC(=O)c1ccc2cn[nH]c2c1)c1cccc2ccccc12", "note": "[Compound 124, (R)-N-(1-(naphthalen-1-yl)ethyl)-1H-indazole-6-carboxamide]", "IC50": "> 5000"}, {"smiles": "Cc1ccc(OCCN(C)C)cc1C(=O)NC1(c2cccc(C3CCCC3)c2)CC1", "note": "[Compound 276, N-(1-(3-Cyclopentylphenyl)cyclopropyl)-5-(2-(dimethylamino)ethoxy)-2-methylbenzamide]", "IC50": "> 5000"}, {"smiles": "Cc1ccc(OCCN(C)C)cc1C(=O)NC1(c2cccc(C)c2C)CC1", "note": "[Compound 318, 5-(2-(Dimethylamino)ethoxy)-N-(1-(2,3-dimethylphenyl)cyclopropyl)-2-methylbenzamide]", "IC50": "1000 to 5000"}, {"smiles": "Cc1ccc(N2CCCNCC2)cc1C(=O)NC1(c2cccc3ccccc23)CC1", "note": "[Compound 411, 5-(1,4-Diazepan-1-yl)-2-methyl-N-(1-(naphthalen-1-yl)cyclopropyl)benzamide]", "IC50": "< 100"}, {"smiles": "COc1cc(C2(NC(=O)c3cc(OC[C@@H]4CCCN4)ccc3C)CC2)c2cccnc2c1", "note": "[Compound 462, (S)-N-(1-(7-Methoxyquinolin-5-yl)cyclopropyl)-2-methyl-5-(pyrrolidin-2-ylmethoxy)benzamide]", "IC50": "< 100"}, {"smiles": "Cc1ccc(OCCNC(C)C)cc1C(=O)NC1(c2cccc3ccccc23)CC1", "note": "[Compound 362, 5-(2-(Isopropylamino)ethoxy)-2-methyl-N-(1-(naphthalen-1-yl)cyclopropyl)benzamide]", "IC50": "< 100"}, {"smiles": "Cc1cc2c(cc1C(=O)N[C@H](C)c1cccc3ccccc13)OCO2", "note": "[Compound 145, (R)-6-Methyl-N-(1-(naphthalen-1-yl)ethyl)benzo[d][1,3]dioxole-5-carboxamide]", "IC50": "1000 to 5000"}, {"smiles": "Cc1ccc(OCC2CCN2C)cc1C(=O)NC1(c2c(C(C)C)ccc3ccccc23)CC1", "note": "(stereo not shown) [Compound 457, N-(1-(2-Isopropylnaphthalen-1-yl)cyclopropyl)-2-methyl-5-((1-methylazetidin-2-yl)methoxy)benzamide]", "IC50": "100 to 1000"}, {"smiles": "Cc1ccc(OCCN(C)C)cc1C(=O)NC1(c2cccc3ccsc23)CC1", "note": "[Compound 368, N-(1-(Benzo[b]thiophen-7-yl)cyclopropyl)-5-(2-(dimethylamino)ethoxy)-2-methylbenzamide]", "IC50": "100 to 1000"}, {"smiles": "Cc1ccc(OCC(N)c2ccccc2)cc1C(=O)NC1(c2cccc3ccccc23)CC1", "note": "(stereo not shown) [Compound 367, 5-(2-Amino-2-phenylethoxy)-2-methyl-N-(1-(naphthalen-1-yl)cyclopropyl)benzamide]", "IC50": "< 100"}]}]}
